Measurements: US20110039763A1, “TARGETED ANTIMICROBIAL MOIETIES” (C3 JIAN, INC., priority 2009, published 2011)

Experiments:
A. niger = test: MIC test / antimicrobial activity, A. niger; type: cell-based, Aspergillus niger
How it was run: (§1)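 Broth microdilution with ~1×10^5 cfu/mL organisms in TH broth (S. mutans) or Mueller-Hinton broth (other organisms). Peptides added as 2-fold serial dilutions, then incubated 18-24 h at 37° C. Experiments run 10 times.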

microorganisms [1] = test: Morphology, biofilm and growth disrupting peptides (Table 5); type: cell-based; parameters: key: A: Peptide aggregates; B: Less hyphal formation; Clumps; Diffuse clumps and small polyps; F: Diffuse growth; H: Thin; I: Growth inhibition; Microcolony formation; Rippled; Small polyps; Thick; W: Halo formation on top, microlonies on bottom
Text: In certain embodiments peptides that induce alterations in phenotype or other biological activities can also be used as antimicrobial effector moieties.

MRSA = test: MIC test / antimicrobial activity, MRSA; type: cell-based, Methicillin-resistant Staphylococcus aureus
Method: (§2) The active AMPs, STAMPs and the like can be identified and/or validated using an in vitro screening assay.
(§3) It will be appreciated that other assays as are well known in the art or that will become apparent to those having skill in the art upon review of this disclosure may also be used to identify active AMPs. Such assays include, for example, the assay described in Lehrer et al. (1988) J. Immunol.
(§4) Peptides were evaluated for basic antimicrobial activity by broth microdilution, as described previously (Eckert et al. (2006) Antimicrob Agents Chemother., 50: 3651-3657; Eckert et al. (2006) Antimicrob Agents Chemother., 50: 1480-1488). Briefly, ˜1×10^5 cfu/mL bacteria were diluted in TH (S. mutans), or Mueller-Hinton (MH) broth (all other organisms) and distributed to 96-well plates. Serially-diluted (2-fold) peptides were then added and the plates incubated at 37° C. for 18-24 h. […] All experiments were conducted 10 times.

T. rubrum = test: MIC test / antimicrobial activity, T. rubrum; type: cell-based, Trichophyton rubrum
How it was run: as §1

B. subtilis = test: MIC test / antimicrobial activity, B. subtilis; type: cell-based, Bacillus subtilis; conditions: B. subtilis
How it was run: as §1

S. epidermidis = test: MIC test (broth microdilution) / antimicrobial activity, S. epidermidis; type: cell-based, Staphylococcus epidermidis; conditions: S. epidermidis
How it was run: as §1

C. albicans = test: MIC test / antimicrobial activity, C. albicans; type: cell-based, Candida albicans
Method: as §2, §3, §4

E. faecalis = test: MIC test / antimicrobial activity, E. faecalis; type: cell-based, Enterococcus faecalis
Method: as §2, §3, §4

microorganisms [2] = test: Peptide activities: targeting/binding, antimicrobial, growth or phenotype altering (Tables 7, 8); type: cell-based; conditions: peptides having multiple activities

MRFGSLALVAYDSAIKHSWPRPSSVRRLRM [PF-672]
Organism MIC (μM) (A. niger): A. niger, 3 μM | Organism, effect (microorganisms [1]; B. subtilis): B. subtilis (I) | Organism, effect (microorganisms [1]; C. albicans): C. albicans (I) | Organism, effect (microorganisms [1]; C. jeikeium): C. jeikeium (R) | Organism, effect (microorganisms [1]; E. faecalis): E. faecalis (I) | Organism, effect (microorganisms [1]; MRSA): MRSA (I) | Organism, effect (microorganisms [1]; S. epidermidis): S. epidermidis (I) | Organism, effect (microorganisms [1]; S. pneumoniae): S. pneumoniae (I) | Organism MIC (μM) (MRSA): MRSA, 1.56 μM | Organism MIC (μM) (T. rubrum): T. rubrum, 0.78 μM | Organism MIC (μM) (B. subtilis): B. subtilis, 0.78 μM | Organism MIC (μM) (S. epidermidis): S. epidermidis, 0.39 μM | Organism MIC (μM) (C. albicans): C. albicans, 1.56 μM | Organism MIC (μM) (E. faecalis): E. faecalis, 3.13 μM | Activities (microorganisms [2]): G B M
